From US11318190B2, “Methods and compositions for treating liver disease” (UNITED STATES GOVERNMENT AS REPRESENTED BY THE DEPARTMENT …, priority 2017, dated 2022)

System: dnTGF-βRII mice
Test: dnTGF-βRII mice 12 wk (early stage PBC model) treated 1 wk by osmotic minipump
Format: in vivo, mouse
Conditions: dnTGF-βRII 12 wk
Method: Briefly, we used wild-type (WT), dnTGFβRII 12 wk and dnTGFβRII 34 wk mice treated with control or SR antagonist (SCT 5-27) minipump (10 μg/kg/day) for 1 wk. Hepatic damage was shown by H&E. IBDM and cholangiocyte proliferation were measured by immunohistochemistry for CK-19 and Ki67, respectively. Biliary apoptosis was evaluated by TUNEL staining. Senescence was measured in cholangiocytes by immunofluorescence for CCL2 or p16 co-stained with CK-19 (to image bile ducts) and SA-β-Galactosidase activity. Hepatic fibrosis was assessed by qPCR for collagen-1a and α-SMA in total liver, and quantification of Sirius Red staining. Hepatic stellate cell (HSC) activation was evaluated by immunofluorescence (IF) for Syp-9. HSC senescence was evaluated by IF for CCL2 or p16 co-stained with desmin (to visualize HSCs). Secretin levels in serum and bile were measured by EIA. Bile and serum were obtained from human control, early PBC and advanced PBC patients, and secretin was evaluated by EIA.
All animal procedures were performed according to protocols approved by the Baylor Scott & White Health IACUC Committee. Transgenic mice expressing a dominant-negative form of the human transforming growth factor-beta receptor II (dnTGF-βRII) were obtained from Dr. M. Eric Gershwin at UC Davis Health (Sacramento, Calif.), and background-matched wild-type (WT, strain C57BL/6) mice were purchased from Charles River Laboratories (Wilmington, Mass.); the breeding colony is established in our animal facility. Animals were maintained in micro-isolator cages in a temperature-controlled environment with 12/12-hr light/dark cycles and fed ad libitum standard chow with free access to drinking water. Studies were performed in 12 wk-old WT mice, and 12 wk-old (mimic early stage PBC) and 32 wk-old (mimic late stage PBC) female and male dnTGF-βRII mice (25-30 gm) that were treated with either saline, secretin (Sct; 2.5 nmoles/kg body weight per day; Bachem, Torrance, Calif.) or the secretin receptor (SR) antagonist, Sec 5-27 (10 μg/kg body weight per day; Thermo Fisher Scientific, Waltham, Mass.) for 1 wk by intraperitoneally implanted osmotic minipump. Liver tissue samples and blocks (formalin-fixed, paraffin-embedded and OCT-embedded), serum, bile, cholangiocytes, and cholangiocyte supernatants (after incubation at 37° C. for 4 hr) were collected as described.
Hematoxylin and eosin (H&E) staining was performed in formalin-fixed, paraffin-embedded liver sections (4-5 μm, 3 samples from 3 different animals) to determine liver morphology. H&E stained liver sections were evaluated by a board-certified pathologist to assess the degree of lobular damage, hepatic necrosis and portal inflammation. At least 10 different portal areas were evaluated for each parameter. Liver sections were examined in a coded fashion by BX-51 light microscopy (Olympus, Tokyo, Japan) equipped with a camera (See, Mancinelli, R et al., Ischemia reperfusion of the hepatic artery induces the functional damage of large bile ducts by changes in the expression of angiogenic factors. Am J Physiol Gastrointest Liver Physiol 2015; 309:G865-873 (2015); Taffetani S et al., Prolactin stimulates the proliferation of normal female cholangiocytes by differential regulation of Ca2+-dependent PKC isoforms, BMC Physiol 7:6 (2007)).
Serum levels of alkaline phosphatase (ALP) and γ-glutamyltransferase (γGT) are commonly used to diagnose PBC (Heathcote, E J, Management of primary biliary cirrhosis. The American Association for the Study of Liver Diseases practice guidelines, Hepatology 31:1005-1013 (2000)); therefore, were measured serum levels of ALP and γGT in mouse serum samples using the Alkaline Phosphatase Assay Kit and γ-Glutamyltransferase Activity Colorimetric Assay Kit, respectively (Abcam; Cambridge, Mass.).
Early stage PBC is identified by cholangiocyte proliferation, whereas late stage PBC is characterized by ductopenia. […]

secretin [Sct]
HSC activation (SYP-9 staining): further enhanced
biliary senescence (p16, p18, p21, CCL2): further increased
cholangiocyte apoptosis (TUNEL-positive cholangiocytes): further reduced
liver damage (H&E: portal inflammation, inflammatory infiltration, lobular necrosis): further increased
Sct, SR, CFTR and AE2 expression (vs saline treated): further increase
collagen content / deposition (Sirius Red), hepatic fibrosis (vs saline treated): further enhanced
serum levels of ALP and γGT (vs saline treated): further increased
intrahepatic bile duct mass (IBDM, CK-19) (vs saline treated, 1 wk minipump): further increase
